Measured values taken from ChEMBL document CHEMBL1932991, “Novel ATP competitive MK2 inhibitors with potent biochemical and cell-based activity throughout the series” (Bioorg Med Chem Lett, 2012).

Legend:
[1] = target: T1, MAP kinase-activated protein kinase 2 (Homo sapiens, UniProt P49137); assay: Inhibition of MK2 using Fluo-betaA-11A NeoMPS as substrate pre-incubated for 30 mins before substrate addition measured after 2 hrs by IMAP assay
THP-1 = assay: Inhibition of LPS-induced TNFalpha production in human THP1 cells pre-incubated for 30 mins prior to LPS-induction measured after 4 hrs by ELISA; type: functional, cell-based
[2] = target: T1, MAP kinase-activated protein kinase 2; assay: Inhibition of MK2-mediated HSP27 phosphorylation in LPS-stimulated human THP1 cells pre-incubated for 60 mins prior to LPS-induction measured after 60 mins by multi-spot assay; type: cell-based, THP-1
PBMC = assay: Inhibition of LPS-induced TNFalpha production in human PBMC pre-incubated for 30 mins prior to LPS-induction measured after 4 hrs by ELISA; type: functional, cell-based
[3] = Permeability of the compound by PAMPA; type: ADME; conditions: for Papp: read-out: permeability
[4] = Dissociation constant, pKa of the compound at pH 7.4; type: physicochemical
[5] = Plasma protein binding in human; type: ADME, cell-free; conditions: read-out: PPB (converted)

T1 sequence (P49137 whole entry): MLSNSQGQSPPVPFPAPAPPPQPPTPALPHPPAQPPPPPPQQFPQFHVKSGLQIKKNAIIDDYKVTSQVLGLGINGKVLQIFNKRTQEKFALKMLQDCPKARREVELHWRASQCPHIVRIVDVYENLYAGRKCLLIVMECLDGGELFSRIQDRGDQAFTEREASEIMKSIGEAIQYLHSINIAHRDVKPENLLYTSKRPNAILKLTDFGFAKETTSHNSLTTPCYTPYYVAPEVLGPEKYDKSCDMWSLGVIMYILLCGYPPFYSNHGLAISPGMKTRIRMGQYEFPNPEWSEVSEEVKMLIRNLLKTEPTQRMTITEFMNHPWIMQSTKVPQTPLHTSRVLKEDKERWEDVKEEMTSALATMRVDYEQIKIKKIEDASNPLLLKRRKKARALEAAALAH

EC50 [1] | EC50 (THP-1; thp-1) | EC50 [2] | permeability [3] | EC50 (THP-1; Homo sapiens, THP-1) | Papp [3] | pKa [4] | fraction unbound [5] | SMILES | EC50 (PBMC; pbmc) | EC50 (PBMC; Homo sapiens, PBMC)
2.4 nM | 310 nM | 320 nM | 1.1 ×10⁻⁶ cm/s | – | – | – | – | O=C(Nc1cc(-c2cc3c([nH]2)C2(CCCNC2)CNC3=O)ccn1)c1ccc(F)cc1 (stereo in doubt; 6dS1) | 70 nM | –
2.6 nM | – | > 10000 nM | – | > 10000 nM | – | – | – | O=C(Nc1cc(-c2cc3c([nH]2)C2(CCNCC2)CNC3=O)ccn1)c1ccncc1 | – | 2600 nM
14 nM | – | – | – | > 10000 nM | – | – | – | O=C1NCC2(CCNCC2)c2[nH]c(-c3ccnc(NC(=O)c4cccc5ccccc45)n3)cc21 | – | –
5.1 nM | – | – | – | 3400 nM | – | – | – | O=C(Nc1nccc(-c2cc3c([nH]2)C2(CCNCC2)CNC3=O)n1)c1ccc2ccccc2c1 | – | –
31 nM | > 10000 nM | 7400 nM | – | – | – | – | – | O=C(Nc1cc(-c2cc3c([nH]2)C2(CCCNC2)CNC3=O)ccn1)c1ccc(F)cc1 (single isomer, unassigned; isomer 2) | 1600 nM | –
8.9 nM | 320 nM | 870 nM | 0.5 ×10⁻⁶ cm/s | – | – | – | – | O=C(Nc1cc(-c2cc3c([nH]2)C2(CCCNC2)CNC3=O)ccn1)c1ccc(F)cc1 (racemic) | – | –
1.6 nM | – | 1300 nM | – | 660 nM | – | – | – | O=C(Nc1cc(-c2cc3c([nH]2)C2(CCNCC2)CNC3=O)ccn1)c1ccc(C(F)(F)F)cc1 | – | 1600 nM
1 nM | – | 350 nM | – | 230 nM | – | – | – | Cc1ccc(C(=O)Nc2cc(-c3cc4c([nH]3)C3(CCNCC3)CNC4=O)ccn2)cc1C | – | 890 nM
15 nM | – | – | – | 7900 nM | – | – | – | O=C(Nc1nccc(-c2cc3c([nH]2)C2(CCNCC2)CNC3=O)n1)c1ccc(F)cc1 | – | –
3.1 nM | – | – | – | 3400 nM | – | – | – | Cc1ccc(C(=O)Nc2nccc(-c3cc4c([nH]3)C3(CCNCC3)CNC4=O)n2)cc1C | – | –
1.1 nM | – | 680 nM | – | 780 nM | 0.6 ×10⁻⁶ cm/s | – | – | O=C(Nc1cc(-c2cc3c([nH]2)C2(CCNCC2)CNC3=O)ccn1)c1cccc(F)c1 | – | 150 nM
1.3 nM | – | 840 nM | – | 1100 nM | – | – | – | O=C(Nc1cc(-c2cc3c([nH]2)C2(CCNC2)CNC3=O)ccn1)c1ccc(F)cc1 (racemic) | – | 200 nM
1.6 nM | – | 3700 nM | – | 1300 nM | – | – | – | O=C(Nc1cc(-c2cc3c([nH]2)C2(CCNCC2)CNC3=O)ccn1)c1ccc(F)cc1 | – | 1400 nM

More lines, now with the values behind:

SMILES | EC50 [1] | EC50 (THP-1; thp-1) | EC50 [2] | permeability [3] | EC50 (THP-1; Homo sapiens, THP-1) | Papp [3] | pKa [4] | fraction unbound [5] | EC50 (PBMC; pbmc) | EC50 (PBMC; Homo sapiens, PBMC)
O=C(Nc1cc(-c2cc3c([nH]2)C2(CCCNC2)CNC3=O)ccn1)c1ccc2ccccc2c1 (racemic) | 7.6 nM | 780 nM | 1100 nM | – | – | – | – | – | 70 nM | –
O=C(Nc1cc(-c2cc3c([nH]2)C2(CCCNC2)CNC3=O)ccn1)c1ccc(C(F)(F)F)cc1 (racemic) | 9.1 nM | – | 1200 nM | – | 1300 nM | – | – | – | – | 480 nM
O=C(Nc1cc(-c2cc3c([nH]2)C2(CCCNC2)CNC3=O)ccn1)c1cc(F)cc(F)c1 (racemic) | 2.5 nM | – | 590 nM | – | 1100 nM | 6.3 ×10⁻⁶ cm/s | – | – | – | 140 nM
O=C1NCC2(CCNCC2)c2[nH]c(-c3ccnc(NC(=O)c4cccc5ccccc45)c3)cc21 | 0.96 nM | – | 520 nM | – | 490 nM | – | – | – | – | 650 nM
O=C1NCC2(CCCNC2)c2[nH]c(-c3ccnc(NC(=O)c4cccc5ccccc45)c3)cc21 (racemic) | 5.1 nM | – | 1100 nM | – | 220 nM | 0.1 ×10⁻⁶ cm/s | – | – | – | 390 nM
O=C(Nc1cc(-c2cc3c([nH]2)C2(CCCNC2)CNC3=O)ccn1)c1cccc(F)c1 (racemic) | 6.2 nM | – | – | – | 560 nM | 1.9 ×10⁻⁶ cm/s | – | – | – | 30 nM
Cc1ccc(C(=O)Nc2cc(-c3cc4c([nH]3)C3(CCCNC3)CNC4=O)ccn2)cc1C (single isomer, unassigned; stereoisomer 2) | 32 nM | 8500 nM | 5300 nM | – | – | 1 ×10⁻⁶ cm/s | – | – | 1200 nM | –
O=C(Nc1cc(-c2cc3c([nH]2)C2(CCNCC2)CNC3=O)ccn1)c1ccc2ccccc2c1 | 0.72 nM | – | 280 nM | – | 320 nM | – | 9.2 | 0.003 | – | 230 nM
O=C(Nc1cc(-c2cc3c([nH]2)C2(CCNCC2)CNC3=O)ccn1)c1cccc(OC(F)(F)F)c1 | 1.5 nM | – | 130 nM | – | 80 nM | – | 9.1 | 0.042 | – | 160 nM
O=C(Nc1cc(-c2cc3c([nH]2)C2(CCNC2)CNC3=O)ccn1)c1cccc(OC(F)(F)F)c1 (racemic) | 1.6 nM | – | 400 nM | – | 690 nM | – | 8.4 | 0.017 | – | 650 nM
O=C(Nc1cc(-c2cc3c([nH]2)C2(CCCNC2)CNC3=O)ccn1)c1ccc2ccccc2c1 (single isomer, unassigned; stereoisomer 1) | 2.5 nM | – | 530 nM | – | 510 nM | – | – | – | 170 nM | –
CN1CCC2(CC1)CNC(=O)c1cc(-c3ccnc(NC(=O)c4ccc5ccccc5c4)c3)[nH]c12 | 2.6 nM | – | 730 nM | – | 1100 nM | – | 8.3 | 0.005 | – | 70 nM
Cc1ccc(C(=O)Nc2cc(-c3cc4c([nH]3)C3(CCCNC3)CNC4=O)ccn2)cc1C (racemic) | 8.1 nM | 460 nM | 690 nM | – | – | – | – | – | 40 nM | –
O=C(Nc1cc(-c2cc3c([nH]2)C2(CCCNC2)CNC3=O)ccn1)c1cccc(OC(F)(F)F)c1 (racemic) | 11 nM | – | 610 nM | – | 620 nM | – | 8.2 | 0.013 | – | 200 nM
O=C(Nc1cc(-c2cc3c([nH]2)C2(CCCNC2)CNC3=O)ccn1)c1ccccn1 (racemic) | 4.2 nM | – | 660 nM | – | 480 nM | 0.2 ×10⁻⁶ cm/s | – | – | – | 130 nM
Cc1ccc(C(=O)Nc2cc(-c3cc4c([nH]3)C3(CCNC3)CNC4=O)ccn2)cc1C (racemic) | 0.71 nM | – | 240 nM | – | 340 nM | 0.2 ×10⁻⁶ cm/s | – | – | – | 150 nM
O=C(Nc1cc(-c2cc3c([nH]2)C2(CCCNC2)CNC3=O)ccn1)c1ccc2ccccc2c1 (single isomer, unassigned) | 129 nM | – | – | – | – | – | 8.2 | 0.004 | – | –
O=C(Nc1cc(-c2cc3c([nH]2)C2(CCNC2)CNC3=O)ccn1)c1ccccn1 (racemic) | 4.1 nM | – | 660 nM | – | 3900 nM | – | – | – | – | –
Cc1ccc(C(=O)Nc2cc(-c3cc4c([nH]3)C3(CCCNC3)CNC4=O)ccn2)cc1C (stereo in doubt; 3dS1) | 5.5 nM | 650 nM | – | – | – | – | – | – | – | –
O=C(Nc1cc(-c2cc3c([nH]2)C2(CCNCC2)CNC3=O)ccn1)c1ccccn1 | 1.4 nM | – | 550 nM | – | 720 nM | – | – | – | – | 260 nM
CN1CCC2(CC1)CNC(=O)c1cc(-c3ccnc(NC(=O)c4cccc(F)c4)c3)[nH]c12 | 2.5 nM | – | 640 nM | – | 540 nM | – | – | – | – | 30 nM
Cc1ccc(C(=O)Nc2cc(-c3cc4c([nH]3)C3(CCN(C)CC3)CNC4=O)ccn2)cc1C | 2.3 nM | – | 920 nM | – | 720 nM | – | – | – | – | –
O=C(Nc1cc(-c2cc3c([nH]2)C2(CCCNC2)CNC3=O)ccn1)c1cccc(C(F)(F)F)c1 (racemic) | 3.3 nM | – | 590 nM | – | 850 nM | – | – | – | – | 140 nM
CN1CCC2(CC1)CNC(=O)c1cc(-c3ccnc(NC(=O)c4cccc(OC(F)(F)F)c4)c3)[nH]c12 | 2.7 nM | – | 830 nM | – | 1000 nM | – | 8.4 | 0.027 | – | 50 nM
O=C(Nc1cc(-c2cc3c([nH]2)C2(CCNC2)CNC3=O)ccn1)c1cccc(F)c1 (racemic) | 1.9 nM | – | 480 nM | – | 1100 nM | 0.6 ×10⁻⁶ cm/s | – | – | – | 170 nM
O=C(Nc1cc(-c2cc3c([nH]2)C2(CCNC2)CNC3=O)ccn1)c1ccc2ccccc2c1 (racemic) | 0.62 nM | – | 390 nM | – | 1700 nM | – | 8.5 | 0.002 | – | –
